From PMC13379085 (PLOS Neglected Tropical Diseases, 2026)

Key:
[1] = tested on: Intracellular L. donovani amastigotes; assay: Luminescence-based assay of intracellular L. donovani burden in THP-1 macrophages; type: cell-based, Leishmania donovani
Method: Luminescent strains, L. donovani LV82 expressing firefly luciferase (a kind gift from Dr. Abhay Satoskar, Ohio State University) and L. mexicana (NR-51210, ATCC) expressing renilla luciferase were used to evaluate the effect of the compounds in intracellular and extracellular conditions. Wild-type L. donovani LV82 (ATCC) were used for Giemsa staining based experiments. All parasites were cultured at 25°C and 5% CO2 in M199 media (Corning) supplemented with 10% FBS, 1% Penicillin/Streptomycin, and Hemin (0.01 mg/mL), and used in experiments up to passage 15.
THP-1 cells were seeded in a 96 well plate (25,000 cells/well) overnight then differentiated with 150 nM phorbol 12-myristate 13-acetate (PMA) over 72 hours (S1 Fig). […] Briefly, promastigotes of a known cell density were resuspended in RPMI media (with 10% FBS, 1% P/S and 0.05 mM β-mercaptoethanol) and incubated with adhered THP-1 cells over 18 hours. After infection, cells were washed three times with fresh media to remove extracellular promastigotes.
Infected macrophages were then treated with compounds solubilized in DMSO ranging from 0.1-10 µM in concentrations. After 72 hours of treatment, the viability of the amastigotes within macrophages was determined using Promega firefly luminescence assay (Cat E1500) or Pierce Renilla luciferase assay (Cat 16166) for L. donovani and L. mexicana strains, respectively. Briefly, media was removed, and cells were lysed with the assay lysis buffer. The luciferase substrate was then incubated with the lysed cells for 10 min at room temperature and luminescence of live Leishmania was measured in a white opaque 96 well plate using a Biotek plate reader.

THP-1 macrophages = assay: MTT viability of THP-1 macrophages (host cell cytotoxicity); type: cell-based; settings: 72 hr incubation up to 300µM
Method: Human monocytes, THP-1 (ATCC, TIB002) were used as host cells for Leishmania infection and to assess drug cytotoxicity. The cells were cultured at 37C, 5% CO2 in RPMI medium (ATCC) supplemented with 10% FBS, 1% Penicillin/Streptomycin and 0.05 mM of β-mercaptoethanol. Cells were used in experiments up to passage 10.
Effect of the compounds on THP-1 cell viability measured using thiazolyl blue tetrazolium bromide which measures cell metabolic activity (MTT). […] Macrophages were then treated with compounds resuspended in RPMI media (1–50 µM) for 24 hours. Media was replaced with thiazolyl blue tetrazolium bromide solubilized in RPMI media (0.5 mg/mL) and incubated at 37°C for 2 hours. The reduced formazan crystals were solubilized with isopropyl alcohol and the absorbance of the resulting solution was measured at 560 nm with a background subtraction at 670 nm. […] This process was repeated with a 72-hr incubation and extended concentration range (1–300 µM) for select compounds.

[2] = tested on: Extracellular L. donovani promastigotes; assay: Resazurin viability assay of extracellular L. donovani promastigotes; type: cell-based, Leishmania donovani; settings: for 53 strain not specified
Method: (§1) The effect of compounds on extracellular promastigotes was evaluated using a resazurin-based assay as described previously. In short, late log phase Leishmania promastigotes were seeded in a 96 well plate at 1 x 10^5 parasites per well and treated with drugs (0.5 – 200 µM) for 72 hours at 25°C. Ten microliters of Resazurin (0.02% w/v) were added to the treated parasites to achieve a final concentration of 0.002% w/v and incubated for 24 hours. Viability of the promastigotes was assessed by fluorescence (excitation 544 nm, emission 590 nm, SpectraMax M2, Molecular Devices).

[3] = tested on: Extracellular L. mexicana promastigotes; assay: Resazurin viability assay of extracellular L. mexicana promastigotes; type: cell-based, Leishmania mexicana
Method: as §1

LV82 L. donovani = assay: Giemsa staining of intracellular L. donovani in BMDMs from wildtype C57BL/6 or lysozyme knockout mice; type: cell-based, Leishmania donovani; settings: 72-hour incubation
Excerpt: B6.129P2-Lyz2^tm1(cre)Ifo/J mice (stock #004781, herein termed ‘Lys K/O’) were obtained from Jackson Laboratory. This strain has a nuclear-localized Cre recombinase inserted into the first coding ATG of the lysozyme 2 gene (Lyz2) which eliminates endogenous Lyz2 gene function. Wildtype C57BL6/J mice (stock #000664) were obtained as a control.
Bone marrow derived macrophages (BMDMs) were isolated from both mice and cultured as described above in “Image-based Evaluation of Intracellular Anti-Leishmanial Activity”. BMDMs were seeded onto glass cover slips, infected with LV82 L. donovani at a multiplicity of infection of 1:10. Cells were washed to remove extracellular promastigotes and treated with compounds (197, amphotericin B) for a 72-hour incubation. BMDM cells were then washed with phosphate buffered saline, fixed with ice-cold methanol, and stained with Giemsa (5% v/v in water). The cover slips with stained cells are mounted onto glass slides and imaged on EVOS XL (100X, Thermo Fisher Scientific). Leishmania amastigotes per 100 macrophages were determined in a blinded manner.

In the case of `O=C(CNCc1cccc(F)c1)Nc1ccc(-n2cc(C(F)(F)F)nc2-c2ccc(-c3ccc(C(F)(F)F)cc3)cc2)cc1` [Compound 197], the “Selectivity 24h LC50/ Lum IC50” value ([1]; host-directed effect vs cytotoxicity in THP-1) is reported as over 20.6, the “intracellular activity (primary screen)” value ([1]; imidazole series) is reported as “retaining potent intracellular activity” and the “reduction in macrophage viability” value (THP-1 macrophages) is reported as “Neither compound had any reduction”. The “direct effects on extracellular promastigote viability” value [2] was “some direct reduction”, the “effect on L. mexicana extracellular promastigote viability” value [3] was “no effect” and the MIC50 ([3]; Leishmania mexicana, 72-hour incubation) was over 200 µM. For the same compound, the “anti-leishmanial activity in WT and Lys K/O BMDMs” value (LV82 L. donovani) was “notably decreased in Lys K/O BMDMs”.
